Experimental data: paper PMC9710782, “Plantaricin NC8 αβ rapidly and efficiently inhibits flaviviruses and SARS-CoV-2 by disrupting their envelopes” (PLOS ONE, 2022)

Key:
LGTV = system: LGTV; set-up: species or system Langat virus
[1] = system: Langat virus strain TP21 (LGTV); format: cell-based; settings: n = 4
IAV (H1N1/CApdm09) = test: Influenza A virus inhibition (plaque) assay; format: cell-based; settings: read-out: concentration required to suppress IAV (by 50%)
SARS-CoV-2 = SARS-CoV-2 virus inhibition (plaque) assay; format: cell-based, Severe Acute Respiratory Syndrome Coronavirus 2; settings: read-out: concentration for 50% reduction of PFU / viral load (SARS-CoV-2)

Sequence | permeabilization of LGTV particles (Sytox Green staining), single peptide (LGTV) | effect on virus infectivity (LGTV viral load) [1] | IC50 (IAV (H1N1/CApdm09)) | IC50 (SARS-CoV-2)
DLTTKLWSSWGYYLGKKARWNLKHPYVQF [D-PLNC8 α] | not as efficient |  |  | 
LLGDFFRKSKEKIGKEFKRIVQRIKDFLRNLVPRTES [LL-37, human cathelicidin-derived antimicrobial peptide used as a control, reference compound] |  | did not affect virus infectivity |  | 
SVPTSVYTLGIKILWSAYKHRKTIEKSFNKGFYH [D-PLNC8 β] | permeabilized |  | ~500 nM | ~500 nM
